One experiment has as its target BaF3(WT) (Homo sapiens, UniProt P00519). In words: WST (CCK-8) anti-proliferative assay, BaF3 WT. The following applies: read-out: BaF3(WT); BaF3 WT cells, 72 h treatment, CCK-8 readout OD 450 nm.
The next experiment addresses BaF3 (T315I mutant) (Homo sapiens, UniProt P00519, T315I, cells depend on it). In words: WST (CCK-8) anti-proliferative assay, BaF3 T315I mutant. Conditions: read-out: BaF3 (T315I mutant), 72 h treatment, CCK-8 readout OD 450 nm.

Description for BaF3 (T315I mutant): (§1) The anti-proliferative effect of representative compounds of the present disclosure was determined by a water-soluble tetrazolium (WST)-based assay using Cell Counting Kit-8 (CCK-8). Cells were seeded in 96-well plates and treated with different concentrations of test articles for 72 h. Each treatment was tested in triplicate. Briefly, a series of 9 concentrations were chosen for each test article and added at 100 μl/well into a 96-well plate. Each concentration was tested in triplicate. 100 μl of diluent was added into 3-6 wells in the same plate for cell control group, and another set of 3-6 wells was used as a blank control.
(§2) In each well, 100 μl of cell suspension (containing optimal cell numbers, which creates approximately 100% confluence of cells in control wells based on by the absorbance (OD) value) was dispensed into the same 96-well plate except for the blank well. The plate was then cultured at 37° C. in an incubator in an atmosphere with 5% CO2 for 72 h. At the end of the treatments, 20 μl/well of CCK-8 reagent was directly added to each well. The plate was then incubated at 37° C. in an incubator in an atmosphere with 5% CO2 for 2-4 hours.
(§3) The cells viability was calculated using the mean OD value of triplicated wells following the equation below: (OD sample−OD blank)/(OD cell control−OD blank)×100 IC50 values were calculated with Graphpad Prism 6.0 software using nonlinear regression (curve fitting) type data analysis.
Description for BaF3(WT): as §1, §2, §3

With `CC(C)N1c2c(-c3ccn[nH]3)cc(C(=O)Nc3ccc(OC(F)(F)Cl)cc3)cc2C2CCN(CC(F)(F)F)CC21` (stereo not shown) [Compound 41, N-(4-(chlorodifluoromethoxy)phenyl)-9-isopropyl-8-(1H-pyrazol-5-yl)-2-(2,2,2-trifluoroethyl)-2,3,4,4a,9,9a-hexahydro-1H-pyrido[3,4-b]indole-6-carboxamide], the results for the GI50 on BaF3(WT) and at BaF3 (T315I mutant) were 120 nM and 850 nM, respectively.

`CC(=O)N[C@H]1CC[C@@H]2c3cc(C(=O)Nc4ccc(OC(F)(F)Cl)cc4)cc(-c4cncnc4)c3N(C(C)C)[C@H]12` [Compound 20-B, (3S,3aS,8bR)-3-acetamido-N-(4-(chlorodifluoromethoxy)phenyl)-4-isopropyl-5-(pyrimidin-5-yl)-1,2,3,3a,4,8b-hexahydrocyclopenta[b]indole-7-carboxamide]: the GI50 at BaF3(WT) worked out at 365 nM; at BaF3 (T315I mutant) it was 1380 nM.

Turning to `CC(=O)N[C@@H]1CC[C@H]2c3cc(C(=O)Nc4ccc(OC(F)(F)Cl)cc4)cc(-c4cnc(C)nc4)c3N(CC(C)(C)C)[C@@H]12` [Compound 61-A], the GI50 on BaF3(WT) is 11 nM; at BaF3 (T315I mutant) it was 56 nM.

Take `CC(=O)N[C@@H]1CC[C@H]2c3cc(C(=O)Nc4ccc(OC(F)(F)Cl)cc4)cc(-c4cnccn4)c3N(CC(C)(C)C)[C@@H]12` [Compound 58-A]: the GI50 is 18 nM at BaF3(WT) and 80 nM at BaF3 (T315I mutant).

On to `CC(C)N1c2c(-c3ccn[nH]3)cc(C(=O)Nc3ccc(OC(F)(F)Cl)cc3)cc2C2CCC(N3CCNC3=O)C21` (stereo not shown) [Compound 38, N-(4-(chlorodifluoromethoxy)phenyl)-4-isopropyl-3-(2-oxoimidazolidin-1-yl)-5-(1H-pyrazol-5-yl)-1,2,3,3a,4,8b-hexahydrocyclopenta[b]indole-7-carboxamide], for which the GI50 at BaF3(WT) came out at 18 nM; at BaF3 (T315I mutant), 77 nM.

On to `CC(=O)N1CCC2c3cc(C(=O)Nc4ccc(OC(F)(F)Cl)cc4)cc(-c4ccn[nH]4)c3N(C(C)C)C2C1` (stereo not shown) [Compound 42, 2-acetyl-N-(4-(chlorodifluoromethoxy)phenyl)-9-isopropyl-8-(1H-pyrazol-5-yl)-2,3,4,4a,9,9a-hexahydro-1H-pyrido[3,4-b]indole-6-carboxamide], for which the GI50 is 38 nM on BaF3(WT) and 115 nM at BaF3 (T315I mutant).

Take `CC(=O)NC1CCC2c3cc(C(=O)Nc4ccc(OC(F)(F)Cl)cc4)cc(-c4cc[nH]n4)c3N(CC3(C)CC3)C12` (stereo not shown) [Compound 45]: the GI50 at BaF3(WT) stood at 18 nM; on BaF3 (T315I mutant), 111 nM.

On to `CC(=O)N[C@@H]1CC[C@H]2c3cc(C(=O)Nc4ccc(OC(F)(F)Cl)cc4)cc(-c4cncc(C)c4)c3N(C(C)C)[C@@H]12` [Compound 50-A], for which the values for the GI50 on BaF3(WT) and on BaF3 (T315I mutant) were 4 nM and 39 nM, respectively.

Take `CC(C)N1c2c(-c3ccn[nH]3)cc(C(=O)Nc3ccc(OC(F)(F)Cl)cc3)cc2C2CCC(NC(=O)C3CN(C)C3)C21` (stereo not shown) [Compound 29, N-(4-(chlorodifluoromethoxy)phenyl)-4-isopropyl-3-(1-methylazetidine-3-carboxamido)-5-(1H-pyrazol-5-yl)-1,2,3,3a,4,8b-hexahydrocyclopenta[b]indole-7-carboxamide]: the figures for the GI50 on BaF3(WT) and on BaF3 (T315I mutant) were 177 nM and 1260 nM, respectively.

`CC(=O)NC1CCC2c3cc(C(=O)Nc4ccc(OC(F)(F)Cl)cc4)cc(-c4cncc(F)c4)c3N(C3CCCC3)C12` (stereo not shown) [Compound 64]: the GI50 on BaF3(WT) came to 8 nM; at BaF3 (T315I mutant), 43 nM.

As to `CC(C)N1c2c(-c3ccn[nH]3)cc(C(=O)Nc3ccc(OC(F)(F)Cl)cc3)cc2C2CCC(NC(=O)Nc3cnccn3)C21` (stereo not shown) [Compound 33, N-(4-(chlorodifluoromethoxy)phenyl)-4-isopropyl-3-(3-(pyrazin-2-yl)ureido)-5-(1H-pyrazol-5-yl)-1,2,3,3a,4,8b-hexahydrocyclopenta[b]indole-7-carboxamide], the GI50 was determined as 14 nM at BaF3(WT) and 109 nM at BaF3 (T315I mutant).

With `CC(C)N1c2c(-c3ccn[nH]3)cc(C(=O)Nc3ccc(OC(F)(F)Cl)cc3)cc2C2CCC(NS(=O)(=O)c3nnc[nH]3)C21` (stereo not shown) [Compound 17], the GI50 turned out to be 1060 nM on BaF3(WT) and 1670 nM at BaF3 (T315I mutant).

Take `CC(C)N1c2c(-c3ccn[nH]3)cc(C(=O)Nc3ccc(OC(F)(F)Cl)cc3)cc2C2CCC(NC(=O)N3CCOCC3)C21` (stereo not shown) [Compound 10]: the GI50 at BaF3(WT) is 31 nM; at BaF3 (T315I mutant), 29 nM.

Consider `CC(C)N1c2c(-c3ccn[nH]3)cc(C(=O)Nc3ccc(OC(F)(F)Cl)cc3)cc2C2CCC(NC(=O)C3CCNCC3)C21` (stereo not shown) [Compound 27], for which the GI50 is 1240 nM at BaF3(WT) and 5060 nM on BaF3 (T315I mutant).

`COC(C)(C)CN1c2c(-c3ccn[nH]3)cc(C(=O)Nc3ccc(OC(F)(F)Cl)cc3)cc2C2CCC(NC(C)=O)C21` (stereo not shown) [Compound 63]: the GI50 on BaF3(WT) came out at 41 nM; at BaF3 (T315I mutant) it was 52 nM.

As to `CC(=O)NC1CC2c3cc(C(=O)Nc4ccc(OC(F)(F)Cl)cc4)cc(-c4ccn[nH]4)c3N(C(C)C)C2C1` (stereo not shown) [Compound 43, 2-acetamido-N-(4-(chlorodifluoromethoxy)phenyl)-4-isopropyl-5-(1H-pyrazol-5-yl)-1,2,3,3a,4,8b-hexahydrocyclopenta[b]indole-7-carboxamide], the GI50 at BaF3(WT) was 190 nM; on BaF3 (T315I mutant), 768 nM.

With `CC(C)N1c2c(-c3ccn[nH]3)cc(C(=O)Nc3ccc(OC(F)(F)Cl)cc3)cc2C2CCCC21` (stereo not shown) [Compound 2, N-(4-(chlorodifluoromethoxy)phenyl)-4-isopropyl-5-(1H-pyrazol-5-yl)-1,2,3,3a,4,8b-hexahydrocyclopenta[b]indole-7-carboxamide], the values for the GI50 on BaF3(WT) and on BaF3 (T315I mutant) were 15 nM and 354 nM, respectively.

On to `CC(C)N1c2c(-c3ccn[nH]3)cc(C(=O)Nc3ccc(OC(F)(F)Cl)cc3)cc2C2CCC(NS(=O)(=O)C3CCOCC3)C21` (stereo not shown) [Compound 25], for which the GI50 at BaF3(WT) amounted to 15 nM; on BaF3 (T315I mutant), 183 nM.

For the compound `CC(=O)N[C@@H]1CC[C@H]2c3cc(C(=O)Nc4ccc(OC(F)(F)Cl)cc4)cc(-c4ccccn4)c3N(CC(C)(C)C)[C@@H]12` [Compound 56-A], the GI50 at BaF3(WT) turned out to be 56 nM; at BaF3 (T315I mutant), 440 nM.

For the compound `COCC(=O)NC1CCC2c3cc(C(=O)Nc4ccc(OC(F)(F)Cl)cc4)cc(-c4ccn[nH]4)c3N(C(C)C)C12` (stereo not shown) [Compound 9], the GI50 was found to be 17 nM on BaF3(WT) and 206 nM at BaF3 (T315I mutant).

As for `CC(=O)N[C@@H]1CC[C@H]2c3cc(C(=O)Nc4ccc(OC(F)(F)Cl)cc4)cc(-c4cncnc4)c3N(C(C)C)[C@@H]12` [Compound 20-A, (3R,3aR,8bS)-3-acetamido-N-(4-(chlorodifluoromethoxy)phenyl)-4-isopropyl-5-(pyrimidin-5-yl)-1,2,3,3a,4,8b-hexahydrocyclopenta[b]indole-7-carboxamide], the GI50 was determined as 42 nM on BaF3(WT) and 29 nM at BaF3 (T315I mutant).

Take `CC(=O)N[C@@H]1CC[C@H]2c3cc(C(=O)Nc4ccc(OC(F)(F)Cl)cc4)cc(-c4cc(F)cc(C#N)c4)c3N(C(C)C)[C@@H]12` [Compound 48-A]: the GI50 turned out to be 2 nM at BaF3(WT) and 14 nM on BaF3 (T315I mutant).

On to `CC(C)N1c2c(-c3ccn[nH]3)cc(C(=O)Nc3ccc(OC(F)(F)Cl)cc3)cc2[C@@H]2CCS(=O)(=O)C[C@@H]21` [Compound 54-A, (4aS,9aR)-N-(4-(chlorodifluoromethoxy)phenyl)-9-isopropyl-8-(1H-pyrazol-5-yl)-1,3,4,4a,9,9a-hexahydrothiopyrano[3,4-b]indole-6-carboxamide 2,2-dioxide], for which the GI50 is 8 nM on BaF3(WT) and 45 nM at BaF3 (T315I mutant).

In the case of `CC(=O)NC1CCC2c3cc(C(=O)Nc4ccc(OC(F)(F)Cl)cc4)cc(-c4cc[nH]n4)c3N(CC(F)(F)F)C12` (stereo not shown) [Compound 49], the values for the GI50 on BaF3(WT) and on BaF3 (T315I mutant) were 72 nM and 125 nM, respectively.

`CC(=O)NC1CCC2c3cc(C(=O)Nc4ccc(OC(F)(F)Cl)cc4)cc(-c4cncnc4)c3N(C(C)C)C12` (stereo not shown) [Compound 20]: the GI50 on BaF3(WT) came to 9 nM; on BaF3 (T315I mutant), 44 nM.

`CNC(=O)NC1CCC2c3cc(C(=O)Nc4ccc(OC(F)(F)Cl)cc4)cc(-c4ccn[nH]4)c3N(C(C)C)C12` (stereo not shown) [Compound 11]: the figures for the GI50 at BaF3(WT) and at BaF3 (T315I mutant) were 53 nM and 64 nM, respectively.

Regarding `CC(C)N1c2c(-c3ccn[nH]3)cc(C(=O)Nc3ccc(OC(F)(F)Cl)cc3)cc2C2CCC(NC(=O)N3CCN(C)CC3)C21` (stereo not shown) [Compound 14], the GI50 on BaF3(WT) was determined as 41 nM; on BaF3 (T315I mutant) it was 208 nM.

As for `CCC(CC)N1c2c(-c3cncc(F)c3)cc(C(=O)Nc3ccc(OC(F)(F)Cl)cc3)cc2C2CCC(NC(C)=O)C21` (stereo not shown) [Compound 65], the GI50 at BaF3(WT) was 9 nM; on BaF3 (T315I mutant), 119 nM.

For the compound `CC(=O)NC1CCC2c3cc(C(=O)Nc4ccc(OC(F)(F)Cl)cc4)cc(-c4cccnc4)c3N(C(C)C)C12` (stereo not shown) [Compound 26], the GI50 came to 12 nM on BaF3(WT) and 65 nM at BaF3 (T315I mutant).

On to `COCCS(=O)(=O)NC1CCC2c3cc(C(=O)Nc4ccc(OC(F)(F)Cl)cc4)cc(-c4ccn[nH]4)c3N(C(C)C)C12` (stereo not shown) [Compound 18], for which the GI50 turned out to be 13 nM on BaF3(WT) and 126 nM at BaF3 (T315I mutant).

Turning to `CC(C)N1c2c(-c3ccn[nH]3)cc(C(=O)Nc3ccc(OC(F)(F)Cl)cc3)cc2C2CCC(O)C21` (stereo not shown) [Compound 1, N-(4-(chlorodifluoromethoxy)phenyl)-3-hydroxy-4-isopropyl-5-(1H-pyrazol-5-yl)-1,2,3,3a,4,8b-hexahydrocyclopenta[b]indole-7-carboxamide], the GI50 came out at 17 nM on BaF3(WT) and 192 nM at BaF3 (T315I mutant).

Take `CC(=O)N[C@@H]1CC[C@H]2c3cc(C(=O)Nc4ccc(OC(F)(F)Cl)cc4)cc(-c4cccnn4)c3N(CC(C)(C)C)[C@@H]12` [Compound 59-A]: the GI50 stood at 65 nM at BaF3(WT) and 122 nM at BaF3 (T315I mutant).

Source of the values: patent US11987575B2, “Tricyclic compounds as BCR-ABL inhibitors” (ASCENTAGE PHARMA (SUZHOU) CO., LTD., priority 2019, dated 2024).
